Test results from patent US6586457B2, “Methods for inhibiting bone resorption” (Merck & Co., Inc., priority 1998, dated 2003).
“Also recorded” adds a separate entry of the source.

What was measured:
EP4 mRNA [1] = experiment: EP4 mRNA levels in RP-1 periosteal cells (Northern blot); assay type: cell-based, rat; conditions: 10^-6 M
Experimental: (§1) RP-1 periosteal cells are spontaneously immortalized from primary cultures of periosteal cells from tibae of 4-week old Sprague-Dawley rats and are cultured in DMEM (BRL, Gaithersburg, Md.) with 10% fetal bovine serum (JRH Biosciences, Lenexa, Kans.). […] Total RNA is extracted from the tibial metaphysis or diaphysis and calvaria using a guanidinium isothiocyanate-phenol-chloroform method after pulverizing frozen bone samples by a tissue homogenizer. See P. Chomczynski et al., Single-step method of RNA isolation by acid guanidium thiocyanate-phenol-chloroform extraction., Analyt Biochem, 162, 156-159 (1987), which is incorporated by reference herein in its entirety. RNA samples ([…]) are separated on 0.9% agarose/formaldehyde gels and transferred onto nylon membranes (Boehringer Mannheim, Germany). Membranes are prehybridized in Hybrisol I (Oncor, Gaithersburg, Md.) and 0.5 mg/ml sonicated salmon sperm DNA (Boehringer) at 42° C. for 3 hours and are hybridized at 42° C. with rat EP2 and mouse EP4 cDNA probes labeled with [^32P]-dCTP (Amersham, Buckinghamshire, UK) by random priming using the rediprime kit (Amersham). After hybridization, membranes are washed 4 times in 2×SSC+0.1% SDS at room temperature for a total of 1 hour and once with 0.2×SSC+0.1% SDS at 55° C. for 1 hour and then exposed to Kodak XAR 2 film at −70° C. using intensifying screens. […]

EP4 mRNA [2] = experiment: EP4 mRNA levels in RCT-3 cells (Northern blot); assay type: cell-based, rat
Experimental: (§2) RCT-1 and RCT-3 are clonal cell lines immortalized by SV-40 large T antigen from cells released from fetal rat calvair by a cmbination collagenase/hyaluronidase digestion. RCT-1 cells, derived from cells released during the first 10 minutes of digestion (fraction I), are cultured in RPMI 1640 medium (BRL) with 10% fetal bovine serum and 0.4 mg/ml G418 (BRL). […] RCT-3 cells, immortalized from osteoblast-enriched fraction III cells, are cultured in F-12 medium (BRL) with 5% Fetal bovine serum and 0.4 mg/ml G418. TRAB-11 cells are also immortalized by SV40 large T antigen from adult rat tibia and are cultured in RPMI 1640 medium with 10% FBS and 0.4 mg/ml G418. ROS 17/2.8 rat osteosarcoma cells are cultured in F-12 containing 5% FBS. Osteoblast-enriched (fraction III) primary fetal rat calvaria cells are obtained by collagenase/hyaluronidase digestion of calvariae of 19 day-old rat fetuses. See Rodan et al., Growth stimulation of rat calvaria osteoblastic cells by acidic FGF, Endocrinology, 121, 1919-1923 (1987), which is incorporated by reference herein in its entirety. Cells are released during 30-50 minutes digestion (fraction III) and are cultured in F-12 medium containing 5% FBS. Total RNA is extracted from the tibial metaphysis or diaphysis and calvaria using a guanidinium isothiocyanate-phenol-chloroform method after pulverizing frozen bone samples by a tissue homogenizer. […]

EP2 mRNA [3] = experiment: EP2 mRNA expression in RP-1 cells (Northern blot); assay type: cell-based, rat
Experimental: as §1

ROS 17/2.8 cells = experiment: Intracellular cAMP in ROS 17/2.8 cells; assay type: cell-based, rat
Experimental: as §2, with “FBS.” for “FBS. Total RNA is extracted from the tibial metaphysis or diaphysis and calvaria using a guanidinium isothiocyanate-phenol-chloroform method after pulverizing frozen bone samples by a tissue homogenizer.”

RCT-3 cells = experiment: Intracellular cAMP in RCT-3 cells; assay type: cell-based, rat
Experimental: as §2, with “FBS.” for “FBS. Total RNA is extracted from the tibial metaphysis or diaphysis and calvaria using a guanidinium isothiocyanate-phenol-chloroform method after pulverizing frozen bone samples by a tissue homogenizer.”

TRAB-11 cells = experiment: Intracellular cAMP in TRAB-11 cells; assay type: cell-based, rat
Experimental: as §2, with “FBS.” for “FBS. Total RNA is extracted from the tibial metaphysis or diaphysis and calvaria using a guanidinium isothiocyanate-phenol-chloroform method after pulverizing frozen bone samples by a tissue homogenizer.”

EP4 mRNA [4] = experiment: EP4 mRNA levels in vivo in bone tissue after systemic administration (Northern blot); set-up: species or system rat
Experimental: For mRNA localization experiments, 5-week old Sprague-Dawley rats (Charles River) are euthanized by CO2, their tibiae and calvariae are excised, cleaned of soft tissues and frozen immediately in liquid nitrogen. For EP4 regulation experiments, 6-week old rats are given a single injection of either vehicle (7% ethanol in sterile water) or an anabolic dose of PGE2 (Cayman Chemical, Ann Arbor, Mich.), 3-6 mg/kg in the same vehicle) intraperitoneally. Animals are euthenized at several time points post-injection and their tibiae and calvariae, as well as samples from lung and kidney tissues are frozen in liquid nitrogen. Total RNA is extracted from the tibial metaphysis or diaphysis and calvaria using a guanidinium isothiocyanate-phenol-chloroform method after pulverizing frozen bone samples by a tissue homogenizer. See P. Chomczynski et al., Single-step method of RNA isolation by acid guanidium thiocyanate-phenol-chloroform extraction., Analyt Biochem, 162, 156-159 (1987), which is incorporated by reference herein in its entirety. RNA samples ([…]) are separated on 0.9% agarose/formaldehyde gels and transferred onto nylon membranes (Boehringer Mannheim, Germany). Membranes are prehybridized in Hybrisol I (Oncor, Gaithersburg, Md.) and 0.5 mg/ml sonicated salmon sperm DNA (Boehringer) at 42° C. for 3 hours and are hybridized at 42° C. with rat EP2 and mouse EP4 cDNA probes labeled with [^32P]-dCTP (Amersham, Buckinghamshire, UK) by random priming using the rediprime kit (Amersham). After hybridization, membranes are washed 4 times in 2×SSC+0.1% SDS at room temperature for a total of 1 hour and once with 0.2×SSC+0.1% SDS at 55° C. for 1 hour and then exposed to Kodak XAR 2 film at −70° C. using intensifying screens. After developing the films, bound probes are removed twice with 0.1% SDS at 80° C. and membranes are hybridized with a human GAPDH (Glyceraldehyde 3-Phosphate Dehydrogenase) cDNA probe (purchased from Clontech, Palo Alto, Calif.) for loading control. To examine if PGE2 regulates EP4 mRNA levels in vivo in bone tissue, […] male rats are injected with PGE2 (3-6 mg/Kg).

EP2 mRNA [5] = experiment: EP2 mRNA in vivo in bone tissue after systemic administration; conditions: RP-1 cells and rat bone tissue
Experimental: For mRNA localization experiments, 5-week old Sprague-Dawley rats (Charles River) are euthanized by CO2, their tibiae and calvariae are excised, cleaned of soft tissues and frozen immediately in liquid nitrogen. For EP4 regulation experiments, 6-week old rats are given a single injection of either vehicle (7% ethanol in sterile water) or an anabolic dose of PGE2 (Cayman Chemical, Ann Arbor, Mich.), 3-6 mg/kg in the same vehicle) intraperitoneally. Animals are euthenized at several time points post-injection and their tibiae and calvariae, as well as samples from lung and kidney tissues are frozen in liquid nitrogen. Total RNA is extracted from the tibial metaphysis or diaphysis and calvaria using a guanidinium isothiocyanate-phenol-chloroform method after pulverizing frozen bone samples by a tissue homogenizer. See P. Chomczynski et al., Single-step method of RNA isolation by acid guanidium thiocyanate-phenol-chloroform extraction., Analyt Biochem, 162, 156-159 (1987), which is incorporated by reference herein in its entirety. RNA samples ([…]) are separated on 0.9% agarose/formaldehyde gels and transferred onto nylon membranes (Boehringer Mannheim, Germany). […]

EP4 mRNA [6] = experiment: In situ hybridization of EP4 expression in tibial bone marrow cells; assay type: in vivo, rat; conditions: rats, single anabolic dose
Experimental: For mRNA localization experiments, 5-week old Sprague-Dawley rats (Charles River) are euthanized by CO2, their tibiae and calvariae are excised, cleaned of soft tissues and frozen immediately in liquid nitrogen. For EP4 regulation experiments, 6-week old rats are given a single injection of either vehicle (7% ethanol in sterile water) or an anabolic dose of PGE2 (Cayman Chemical, Ann Arbor, Mich.), 3-6 mg/kg in the same vehicle) intraperitoneally. Animals are euthenized at several time points post-injection and their tibiae and calvariae, as well as samples from lung and kidney tissues are frozen in liquid nitrogen.
Frozen tibiae are sectioned coronally at […] thickness and sections are mounted on charged slides (Probe On Plus, Fisher Scientific, Springfield, N.J.) and are kept at −70° C. until hybridization. cRNA probes are labeled with ^35S-UTPgS (ICN, Costa Mesa, Calif.) using a Riboprobe II kit (Promega Madison, Wis.). Hybridization is performed overnight at 50° C. […]
In situ hybridization is used in order to localize cells expressing EP4 in bone. In control experiment (vehicle-injected) rats, low expression of EP4 was detected in bone marrow cells. […]

[7] = rats, 3-6 mg/Kg, systemic injection
[8] = young adult rats, 3-6 mg/kg, systemic

Compound: CCCCCC(O)/C=C/[C@H]1C(O)CC(=O)C1C/C=C\CCCC(=O)O (stereo partly shown) [PGE2]
- effect on EP4 mRNA levels (EP4 mRNA [1]): rapidly increases EP4 mRNA levels; also recorded: increases the level of EP4 mRNA
- time of peak of EP4 mRNA levels after treatment (EP4 mRNA [1]): 2 h
- effect on EP4 mRNA levels (EP4 mRNA [2]): no effect on EP4 mRNA levels
- EP2 mRNA expression before or after treatment (EP2 mRNA [3]): not expressed
- effect on intracellular cAMP (ROS 17/2.8 cells): no effect on intracellular cAMP
- effect on intracellular cAMP (RCT-3 cells): markedly induced
- effect on intracellular cAMP (TRAB-11 cells): markedly induced
- effect on EP4 mRNA levels in tibial diaphysis (EP4 mRNA [4]; [7]): rapidly increased EP4 mRNA levels
- time of peak of EP4 mRNA levels in tibial diaphysis after injection (EP4 mRNA [4]; [7]): 2 h
- effect on expression of EP4 in tibiae and calvariae (EP4 mRNA [4]; [8]): upregulates the expression of EP4
- time of peak of EP4 upregulation in tibiae and calvariae (EP4 mRNA [4]; [8]): 1 to 2 h
- induction of EP2 mRNA in RP-1 cells and bone tissue (EP2 mRNA [5]): does not include EP2 mRNA
- effect on expression of EP4 in bone marrow cells (EP4 mRNA [6]): increasesd the expression of EP4
